Source: patent US6362207B1, “Methods of treating viral infections with benzimidazoles” (priority 1995, dated 2002)
Values joined by “and” are separate entries in the source; they are usually repeats but may differ in a detail not shown here. Identical values can stand only once. Like-named read-outs stand apart in the source and are kept apart here.

Columns and labels:
[1] = test system: B16 murine melanoma cell line; experiment: Apoptosis study (TdT assay) and cell growth; type: cell-based
Procedure: (§1) Summary of test results: The extent of apoptosis is measured in human tumor cell lines after treatment for 1, 2, 3 and 4 days with carbendazim. At each of these time points, the cells are harvested and assayed using the terminal deoxynucleotidyl transferase (TdT) assays. Both microscopy and flow cytometry were used for the TdT assay.
(§2) In MCF7, HT29, B16 and SK-MES cell lines, there was a concentration dependent effect on cell growth. […] After completion of the studies on the MCF7 and HT29 cell lines, it was evident that the 0.1 μg/ml concentration had little effect on either apoptosis or cell growth. Therefore subsequent assays were with 5 μg/ml instead of 0.1 μg/ml.
The concentration effects at days 1-4 were much more evident after normalization of the apoptosis for the growth rates.

Prostate cancer model = experiment: Prostate cancer model, tumor weight; type: in vivo, mice; conditions: c1-c6 = day 22, 26, 29, 33, 36, 39
[2] = test system: HT29 (colon) cancer cells; experiment: Apoptosis study (TdT assay) and cell growth; type: cell-based, human
Procedure: as §1, §2

B-16 mouse melanoma = conditions: for Increased Life Span: B16 melanoma
Procedure: The data in Tables 1, 2 and 3 are reported in T/C which is interpreted using the following scale:
long term survivors for P388 is >30 days, for B16 it is >60 days. The NCI Measure of Success is T/C=125.
This study was performed in black mice injected i.p. with B-16 mouse melanoma which many researchers believe is the most predictive model for efficacy in humans. […] Death is the end point in this model.

herpes = experiment: In vitro herpes model; type: cell-based
MX1 breast cells = experiment: MTT cell viability test, breast tumor cells; type: cell-based, human; conditions: 5 day incubation
MV522 = experiment: Lung cancer model MV522 after Taxol, tumor weight; type: in vivo, mice
Procedure: The dose response effect of carbendazim in mice infected with various cancer types was studied in standard screening tests.
The results of these studies conducted to study the dosage response of carbendazim on various cancer types are summarized below. […] Efficacy of carbendazim has been shown in the following cancers:
At doses of 2000, 3000, 4000 and 5000 (mg/kg given twice weekly, p.o.) tumor growth was suppressed in a dose response and the tumor was shrunk in the 5000 mg/kg group. Day 1 is the start of the treatment with carbendazim.

influenza = experiment: In vitro influenza model; type: cell-based
[3] = test system: HIV-1 in U1 cells (promonocytic, from U937); experiment: Additional chronic HIV studies, monocytes; type: cell-based; conditions: concentration not given
Procedure: Chronic HIV-1 infected cells U1 were derived from an acute HIV-1 infection of the promonocytic cell line, U937. The chronic HIV-1 infected cells, ACH-2 were derived from an acute HIV-1 infection of the T cell line, A3.01.
These cells were cultured in medium and the phorbol ester, PMA. PMA causes the cells (both U1 and ACH-2) to be activated and not divide but it also causes the U-1 cells to differentiate. […] Cell viability was measured when these cell lines were treated with the test compound.
Both cell lines constituitively produce a small amount of HIV-1. ACH-2 cell lines tend to produce more HIV-1 than U1 cells as shown by p24 ELISA. When either cell line is cultured in the presence of PMA there is an increase in the quantity of HIV-1 produced as measured by the p24 antigen ELISA.
In addition, the number of […] positive HIV mRNA expressing cells per microscopic field is measured. Comparisons can be made from these numbers since the same number of cells were adhered to the glass slides for each drug concentration 10×10^6 cells/ml).
These cells were treated with test samples. […] The positive control was interferon which suppressed HIV monocytes replication by 80%.

A549 lung tumor cells = experiment: MTT cell viability test, lung tumor cells; type: cell-based, human; conditions: MTT, 5 day incubation
MCF7 (normal p53) = experiment: Selectivity in killing p53 abnormal cell lines, cell counts; type: cell-based; conditions: day 7
Procedure: (§3) Summary of lest results: Pairs of tumors of the same type were chosen, one expressing normal p53 and the other abnormal p53. Breast lines used were MCF7 for the normal p53, V4B, a MCF7 cells transformed with an empty vector, and VM4K, an MCF7 cells transfected with a vector encoding abnormal p53. In the colorectal cancer model HCT116 with a normal p53 was used and DLD-1 was used as the abnormal p53 cell line. The tumor cells were grown the presence and absence of carbendazim for 7 days. Cell growth rates were determined in each group by counting the cell numbers daily using a Coulter counter.

[4] = test system: V4B (MCF7 transformed with empty vector); experiment: as above; type: cell-based; conditions: day 7
Procedure: as §3

[5] = test system: VM4K (MCF7 transfected with abnormal p53); experiment: as above; type: cell-based; conditions: day 7
Procedure: as §3

HCT116 (normal p53) = experiment: as above; type: cell-based; conditions: day 7
Procedure: as §3

DLD-1 (abnormal p53) = experiment: as above; type: cell-based; conditions: day 7
Procedure: as §3

Q: How did the growth rates ([1]; all concentrations) turn out when `COC(=O)Nc1nc2ccccc2[nH]1` [carbendazim, 2-methoxycarbonylamino-benzimidazole] was run?
A: The growth rates was “affected the growth rates”.

Q: What about the apoptosis ([1]; days 14 by TdT microscopy and days 2-4 by flow cytometry) of the same molecule?
A: The apoptosis was “Some concentration dependent effects”.

Q: What about the tumor weight (Prostate cancer model; 4000 mg/kg p.o. twice a week) of the same molecule?
A: Its tumor weight is 330.5 mg and 347.9 mg and 346.6 mg and 421.1 mg and 464.9 mg and 517 mg.

Q: And the tumor weight (Prostate cancer model; 6000 mg/kg p.o. twice a week)?
A: Its tumor weight is 331.5 mg and 371.7 mg and 421.7 mg and 517.2 mg and 529.9 mg and 595.2 mg.

Q: What about the apoptosis ([2]; 10 μg/ml, days 3 and 4) of the same molecule?
A: The apoptosis was over 25%.

Q: What about the cell growth ([2]; below 10 μg/ml) of the same molecule?
A: The cell growth was “not largely slowed down”.

Q: What about the T/C (B-16 mouse melanoma; 500 mg/kg twice weekly) of the same molecule?
A: Its T/C is 141.

Q: And the “weight change (%)” value (B-16 mouse melanoma; 500 mg/kg twice weekly)?
A: The value was −0.64%.

Q: And the T/C (B-16 mouse melanoma; 1000 mg/kg twice weekly)?
A: The T/C was 176.

Q: What about the “weight change (%)” value (B-16 mouse melanoma; 1000 mg/kg twice weekly) of the same molecule?
A: Its value is −4.75%.

Q: What about the T/C (B-16 mouse melanoma; 1250 mg/kg twice weekly) of the same molecule?
A: The T/C was 124.

Q: And the “weight change (%)” value (B-16 mouse melanoma; 1250 mg/kg twice weekly)?
A: The value was “+1.99%”.

Q: What about the T/C (B-16 mouse melanoma; 2000 mg/kg twice weekly) of the same molecule?
A: The T/C was 169.

Q: And the “weight change (%)” value (B-16 mouse melanoma; 2000 mg/kg twice weekly)?
A: Its value is −11.63%.

Q: What about the T/C (B-16 mouse melanoma; 2500 mg/kg twice weekly) of the same molecule?
A: The T/C was 169.

Q: And the “weight change (%)” value (B-16 mouse melanoma; 2500 mg/kg twice weekly)?
A: Its value is “+3.16%”.

Q: What about the T/C (B-16 mouse melanoma; 5000 mg/kg twice weekly) of the same molecule?
A: The T/C was 198.

Q: And the “weight change (%)” value (B-16 mouse melanoma; 5000 mg/kg twice weekly)?
A: Its value is −0.64%.

Q: And the “Increased Life Span” value (B-16 mouse melanoma; 1000 mg/kg)?
A: The value was 131%.

Q: What about the “Increased Life Span” value (B-16 mouse melanoma; 2000 mg/kg) of the same molecule?
A: Its value is 163%.

Q: And the “Increased Life Span” value (B-16 mouse melanoma; 4000 mg/kg)?
A: Its value is 187%.

Q: What about the activity (herpes) of the same molecule?
A: The activity was “no activity”.

Q: And the “EC-50 Result” value (MX1 breast cells; MX1, first column)?
A: The value was 0.829 ppm.

Q: And the “EC-50 Result” value (MX1 breast cells; MX1, second column)?
A: Its value is 0.856 ppm.

Q: And the tumor weight (MV522; 2000 mg/kg twice weekly p.o., c1-c3 = day 59, 63, 66, 2000 mg/kg, day 59)?
A: Its tumor weight is 214.9 mg.

Q: And the tumor weight (MV522; 2000 mg/kg twice weekly p.o., c1-c3 = day 59, 63, 66, 2000 mg/kg, day 63)?
A: Its tumor weight is 193.7 mg.

Q: And the tumor weight (MV522; 2000 mg/kg twice weekly p.o., c1-c3 = day 59, 63, 66, 2000 mg/kg, day 66)?
A: The tumor weight was 188.9 mg.

Q: And the tumor weight (MV522; 3000 mg/kg twice weekly p.o., c1-c3 = day 59, 63, 66, 3000 mg/kg, day 59)?
A: Its tumor weight is 75.4 mg.

Q: What about the tumor weight (MV522; 3000 mg/kg twice weekly p.o., c1-c3 = day 59, 63, 66, 3000 mg/kg, day 63) of the same molecule?
A: Its tumor weight is 77 mg.

Q: What about the tumor weight (MV522; 3000 mg/kg twice weekly p.o., c1-c3 = day 59, 63, 66, 3000 mg/kg, day 66) of the same molecule?
A: Its tumor weight is 94.5 mg.

Q: What about the activity (influenza) of the same molecule?
A: Its activity is “no activity”.

Q: And the “suppression of replication in the HIV monocytes” value [3]?
A: Its value is 9%.

Q: And the “EC-50 Result” value (A549 lung tumor cells; A549, first column)?
A: The value was 0.856 ppm.

Q: What about the “EC-50 Result” value (A549 lung tumor cells; A549, second column) of the same molecule?
A: The value was 0.836 ppm.

Q: And the “cell counts, % of the control” value (MCF7 (normal p53); 5 μg/ml)?
A: The value was 45%.

Q: What about the “cell counts, % of the control” value (MCF7 (normal p53); 10 μg/ml) of the same molecule?
A: The value was 36%.

Q: And the “cell counts, % of the control” value ([4]; 5 μg/ml)?
A: The value was “less than 10%”.

Q: What about the “cell counts, % of the control” value ([4]; 10 μg/ml) of the same molecule?
A: The value was “less than 10%”.

Q: What about the “cell counts, % of the control” value ([5]; 5 μg/ml) of the same molecule?
A: Its value is “less than 10%”.

Q: And the “cell counts, % of the control” value ([5]; 10 μg/ml)?
A: The value was “less than 10%”.

Q: What about the “cell counts, % of the control” value (HCT116 (normal p53); HCT 116, 1 μg/ml) of the same molecule?
A: The value was 78%.

Q: What about the “cell counts, % of the control” value (HCT116 (normal p53); HCT116, 5 μg/ml) of the same molecule?
A: Its value is “less than 10%”.

Q: And the “cell counts, % of the control” value (HCT116 (normal p53); HCT116, 10 μg/ml)?
A: Its value is “less than 10%”.

Q: What about the “cell counts, % of the control” value (DLD-1 (abnormal p53); DLD1, 1 μg/ml) of the same molecule?
A: Its value is 34%.

Q: And the “cell counts, % of the control” value (DLD-1 (abnormal p53); DLD-1, 5 μg/ml)?
A: The value was “less than 10%”.

Q: And the “cell counts, % of the control” value (DLD-1 (abnormal p53); DLD-1, 10 μg/ml)?
A: Its value is “less than 10%”.
